Experimental data: patent US10689628B2, “Method of making variant LovD polypeptides” (THE REGENTS OF THE UNIVERSITY OF CALIFORNIA, priority 2009, dated 2020)
“Also recorded” adds a separate entry of the source.

B1: A4: LovD C72A mutant (protein, UniProt Q9Y7D1 1-413, looked up, variant C72A)
Monacolin J acid …: MGSIIDAAAAADPVVLMETAFRKAVKSRQIPGAVIMARDCSGNLNYTRCFGARTVRRDECNQLPPLQVDTPARLASATKLLTTIMALQCMERGLVDLDETVDRLLPDLSAMPVLEGFDDAGNARLRERRGKITLRHLLTHTSGLSYVFLHPLLREYMAQGHLQSAEKFGIQSRLAPPAVNDPGAEWIYGANLDWAGKLVERATGLDLEQYLQENICAPLGITDMTFKLQQRPDMLARRADQTHRNSADGRLRYDDSVYFRADGEECFGGQGVFSGPGSYMKVLHSLLKRDGLLLQPQTVDLMFQPALEPRLEEQMNQHMDASPHINYGGPMPMVLRRSFGLGGIIALEDLDGENWRRKGSLTFGGGPNIVWQIDPKAGLCTLAFFQLEPWNDPVCRDLTRTFEHAIYAQYQQG
B2: A9: LovD C395A mutant (protein, UniProt Q9Y7D1 1-413, looked up, variant C395A)
Monacolin J acid …: MGSIIDAAAAADPVVLMETAFRKAVKSRQIPGAVIMARDCSGNLNYTRCFGARTVRRDECNQLPPLQVDTPCRLASATKLLTTIMALQCMERGLVDLDETVDRLLPDLSAMPVLEGFDDAGNARLRERRGKITLRHLLTHTSGLSYVFLHPLLREYMAQGHLQSAEKFGIQSRLAPPAVNDPGAEWIYGANLDWAGKLVERATGLDLEQYLQENICAPLGITDMTFKLQQRPDMLARRADQTHRNSADGRLRYDDSVYFRADGEECFGGQGVFSGPGSYMKVLHSLLKRDGLLLQPQTVDLMFQPALEPRLEEQMNQHMDASPHINYGGPMPMVLRRSFGLGGIIALEDLDGENWRRKGSLTFGGGPNIVWQIDPKAGLCTLAFFQLEPWNDPVARDLTRTFEHAIYAQYQQG
B3: A8: LovD C380A mutant (protein, UniProt Q9Y7D1 1-413, looked up, variant C380A)
Monacolin J acid …: MGSIIDAAAAADPVVLMETAFRKAVKSRQIPGAVIMARDCSGNLNYTRCFGARTVRRDECNQLPPLQVDTPCRLASATKLLTTIMALQCMERGLVDLDETVDRLLPDLSAMPVLEGFDDAGNARLRERRGKITLRHLLTHTSGLSYVFLHPLLREYMAQGHLQSAEKFGIQSRLAPPAVNDPGAEWIYGANLDWAGKLVERATGLDLEQYLQENICAPLGITDMTFKLQQRPDMLARRADQTHRNSADGRLRYDDSVYFRADGEECFGGQGVFSGPGSYMKVLHSLLKRDGLLLQPQTVDLMFQPALEPRLEEQMNQHMDASPHINYGGPMPMVLRRSFGLGGIIALEDLDGENWRRKGSLTFGGGPNIVWQIDPKAGLATLAFFQLEPWNDPVCRDLTRTFEHAIYAQYQQG
B4: A6: LovD C216A mutant (protein, UniProt Q9Y7D1 1-413, looked up, variant C216A)
Monacolin J acid …: MGSIIDAAAAADPVVLMETAFRKAVKSRQIPGAVIMARDCSGNLNYTRCFGARTVRRDECNQLPPLQVDTPCRLASATKLLTTIMALQCMERGLVDLDETVDRLLPDLSAMPVLEGFDDAGNARLRERRGKITLRHLLTHTSGLSYVFLHPLLREYMAQGHLQSAEKFGIQSRLAPPAVNDPGAEWIYGANLDWAGKLVERATGLDLEQYLQENIAAPLGITDMTFKLQQRPDMLARRADQTHRNSADGRLRYDDSVYFRADGEECFGGQGVFSGPGSYMKVLHSLLKRDGLLLQPQTVDLMFQPALEPRLEEQMNQHMDASPHINYGGPMPMVLRRSFGLGGIIALEDLDGENWRRKGSLTFGGGPNIVWQIDPKAGLCTLAFFQLEPWNDPVCRDLTRTFEHAIYAQYQQG
B5: A7: LovD C266A mutant (protein, UniProt Q9Y7D1 1-413, looked up, variant C266A)
Monacolin J acid …: MGSIIDAAAAADPVVLMETAFRKAVKSRQIPGAVIMARDCSGNLNYTRCFGARTVRRDECNQLPPLQVDTPCRLASATKLLTTIMALQCMERGLVDLDETVDRLLPDLSAMPVLEGFDDAGNARLRERRGKITLRHLLTHTSGLSYVFLHPLLREYMAQGHLQSAEKFGIQSRLAPPAVNDPGAEWIYGANLDWAGKLVERATGLDLEQYLQENICAPLGITDMTFKLQQRPDMLARRADQTHRNSADGRLRYDDSVYFRADGEEAFGGQGVFSGPGSYMKVLHSLLKRDGLLLQPQTVDLMFQPALEPRLEEQMNQHMDASPHINYGGPMPMVLRRSFGLGGIIALEDLDGENWRRKGSLTFGGGPNIVWQIDPKAGLCTLAFFQLEPWNDPVCRDLTRTFEHAIYAQYQQG
B6: A5: LovD C89A mutant (protein, UniProt Q9Y7D1 1-413, looked up, variant C89A)
Monacolin J acid …: MGSIIDAAAAADPVVLMETAFRKAVKSRQIPGAVIMARDCSGNLNYTRCFGARTVRRDECNQLPPLQVDTPCRLASATKLLTTIMALQAMERGLVDLDETVDRLLPDLSAMPVLEGFDDAGNARLRERRGKITLRHLLTHTSGLSYVFLHPLLREYMAQGHLQSAEKFGIQSRLAPPAVNDPGAEWIYGANLDWAGKLVERATGLDLEQYLQENICAPLGITDMTFKLQQRPDMLARRADQTHRNSADGRLRYDDSVYFRADGEECFGGQGVFSGPGSYMKVLHSLLKRDGLLLQPQTVDLMFQPALEPRLEEQMNQHMDASPHINYGGPMPMVLRRSFGLGGIIALEDLDGENWRRKGSLTFGGGPNIVWQIDPKAGLCTLAFFQLEPWNDPVCRDLTRTFEHAIYAQYQQG
B7: A2: LovD C49A mutant (protein, UniProt Q9Y7D1 1-413, looked up, variant C49A)
Monacolin J acid …: MGSIIDAAAAADPVVLMETAFRKAVKSRQIPGAVIMARDCSGNLNYTRAFGARTVRRDECNQLPPLQVDTPCRLASATKLLTTIMALQCMERGLVDLDETVDRLLPDLSAMPVLEGFDDAGNARLRERRGKITLRHLLTHTSGLSYVFLHPLLREYMAQGHLQSAEKFGIQSRLAPPAVNDPGAEWIYGANLDWAGKLVERATGLDLEQYLQENICAPLGITDMTFKLQQRPDMLARRADQTHRNSADGRLRYDDSVYFRADGEECFGGQGVFSGPGSYMKVLHSLLKRDGLLLQPQTVDLMFQPALEPRLEEQMNQHMDASPHINYGGPMPMVLRRSFGLGGIIALEDLDGENWRRKGSLTFGGGPNIVWQIDPKAGLCTLAFFQLEPWNDPVCRDLTRTFEHAIYAQYQQG

Experiments:
LovD = target: T1, LovD (Aspergillus terreus, UniProt Q9Y7D1); settings: cited from earlier work; for substrate quality for LovD (in words): WO 2007/139871, acyl-CoA substrates; for apparent kcat: WO 2007/139871, acyl donor with LovD and monacolin J; for conversion / acylation of monacolin J with acyl-CoA: WO 2007/139871: 1 mM monacolin J, 4 mM acyl-CoA, 10 uM LovD, 10 hours
T1 construct: made in house; host or cells: E. coli BL21(DE3)/pAW31
T1 sequence (Q9Y7D1 whole entry): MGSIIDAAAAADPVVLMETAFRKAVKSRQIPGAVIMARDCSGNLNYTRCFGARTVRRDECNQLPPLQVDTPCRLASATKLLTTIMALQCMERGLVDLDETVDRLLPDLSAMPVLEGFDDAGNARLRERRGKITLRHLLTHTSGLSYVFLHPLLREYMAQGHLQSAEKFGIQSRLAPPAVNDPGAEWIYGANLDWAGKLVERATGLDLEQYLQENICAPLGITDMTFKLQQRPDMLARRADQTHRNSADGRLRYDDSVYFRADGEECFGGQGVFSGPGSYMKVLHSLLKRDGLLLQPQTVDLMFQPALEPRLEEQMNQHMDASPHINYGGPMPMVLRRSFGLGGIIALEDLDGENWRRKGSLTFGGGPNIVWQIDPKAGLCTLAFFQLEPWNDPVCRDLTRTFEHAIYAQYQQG

[1] = Native gel / SDS-PAGE of LovD proteins (oligomer, insoluble protein); format: physicochemical; settings: DTT fixed at 2 mM
Experimental: FIG. 2. (a) SDS-PAGE gel LovD protein (WT) from E. coli BL21(DE3)/pAW31; (b) native gel of LovD protein (WT) and A1-A8 respectively, DTT was fixed at 2 mM for all samples.
LovD protein was purified to homogeneity by one step Ni-NTA column (FIG. 2a). […] The disulfide bonds between the proteins are spurious for protein crystallization because the monomer and oligomer are different species (see, e.g. Nemoto et al., 2006; J Appl Physiol 100(5):1688-91). One of our purposes was to remove the intermolecular disulfide bonds. By replacing the cysteine residues with alanine, we hope the resultant LovD mutant can keep the acyl-transferase activity while breaking the intermolecular disulfide bonds. […] We reasoned that the solubility of LovD may be changed when the intermolecular disulfide bonds between wild type LovD was eliminated (see, e.g. Lindberg et al., M. 2004; Proc Natl Acad Sci USA 101(45):15893-8).
We ran the native gel of all the mutant proteins together with the wild type LovD protein (FIG. 2b).

E. coli YT2 = assay: Whole-cell biocatalysis, MJ acid and DMB-S-MMP to simvastatin acid (Example 1); settings: 8 hours conversion, alanine scanning mutants
Experimental: Whole cell biocatalytic activities based on the conversion from MJ acid and DMB-S-MMP (gray column) and soluble protein expression level comparison between the wild type LovD and the mutants (black column). For the whole cell activity, the LB culture was concentrated 10 times to mimic high density fermentation, 15 mM MJ acid and 18 mM DMB-S-MMP were used to compare the conversion. The conversion based on 8 hours was used to compare the whole cell activity between the wild type LovD and the mutants. The wild type LovD conversion was normalized to 100%, the data points are averaged values of two runs.
The LovD wild type and all mutants were cultured side-by-side for comparison. A single colony of the freshly transformed strains was used to inoculate a 5 ml LB culture supplemented with 35 mg/L kan and grown overnight at 37° C. The next morning, 100 μl of the overnight culture (0.2%) was inoculated into 50 ml LB medium with Kan. When OD600 reached 0.4˜0.6, 0.1 mM IPTG was added to the culture and expression of LovD was performed at 20° C. for 16 hrs. To mimic the high density fermentation conditions, the cells were concentrated 10-fold before addition of substrates. A 14 ml aliquot of the culture was collected by centrifugation (4° C., 4000 g, 10 min). […]

Row | Molecule | substrate quality for LovD (in words) (LovD) | native gel: oligomer / monomer / stability (in words) [1] | also measured
1 | CC(=O)CC(=O)SCCNC(=O)CCNC(=O)[C@H](O)C(C)(C)COP(=O)(O)OP(=O)(O)OC[C@H]1O[C@@H](n2cnc3c(N)ncnc32)[C@H](O)[C@@H]1OP(=O)(O)O [Acetoacetyl-CoA] | excellent substrates | – | –
2 | CCCC(=O)SCCNC(C)=O [SNAC, butyryl-SNAC] | – | – | apparent kcat (LovD): 0.0015 s⁻¹
3 | CC(C)(COP(=O)(O)OP(=O)(O)OC[C@H]1O[C@@H](n2cnc3c(N)ncnc32)[C@H](O)[C@@H]1OP(=O)(O)O)[C@@H](O)C(=O)NCCC(=O)NCCSC(=O)c1ccccc1 [benzoyl-CoA] | – | – | apparent kcat (LovD): 0.00267 s⁻¹; conversion / acylation of monacolin J with acyl-CoA (LovD): ~70%
4 | CCCC(=O)SCCNC(=O)CCNC(=O)[C@H](O)C(C)(C)COP(=O)(O)OP(=O)(O)OC[C@H]1O[C@@H](n2cnc3c(N)ncnc32)[C@H](O)[C@@H]1OP(=O)(O)O [butyryl-CoA] | optimal alkylacyl-CoA substrate | – | –
5 | C/C=C/C(=O)SCCNC(=O)CCNC(=O)[C@H](O)C(C)(C)COP(=O)(O)OP(=O)(O)OC[C@H]1O[C@@H](n2cnc3c(N)ncnc32)[C@H](O)[C@@H]1OP(=O)(O)O [crotonyl-CoA] | – | – | conversion / acylation of monacolin J with acyl-CoA (LovD): 6%
6 | CC(C)(COP(=O)(O)OP(=O)(O)OC[C@H]1O[C@@H](n2cnc3c(N)ncnc32)[C@H](O)[C@@H]1OP(=O)(O)O)[C@@H](O)C(=O)NCCC(=O)NCCSC(=O)CC(=O)O [malonyl-CoA] | inactive | – | –
7 | CCCCCCCCCCCCCCCC(=O)SCCNC(=O)CCNC(=O)[C@H](O)C(C)(C)COP(=O)(O)OP(=O)(O)OC[C@H]1O[C@@H](n2cnc3c(N)ncnc32)[C@H](O)[C@@H]1OP(=O)(O)O [palmitoyl-CoA] | inactive | – | –
8 | CC[C@H](C)C(=O)SCCNC(C)=O [α-S-methylbutyryl-SNAC] | – | – | apparent kcat (LovD): ~0.00067 s⁻¹
9 | CC(O)CC(=O)SCCNC(=O)CCNC(=O)[C@H](O)C(C)(C)COP(=O)(O)OP(=O)(O)OC[C@H]1O[C@@H](n2cnc3c(N)ncnc32)[C@H](O)[C@@H]1OP(=O)(O)O (stereo partly drawn) [β-hydroxylbutyryl-CoA] | excellent substrates | – | –
10 | B1 | – | not very stable; also recorded: less proteins | –
11 | B2 | – | no soluble proteins at all | whole cell activity compared to the wild type (in words) (E. coli YT2): no activity
12 | B3 | – | very similar to WT | –
13 | B4 | – | very similar to WT | –
14 | B5 | – | not very stable; also recorded: less proteins | –
15 | B6 | – | not very stable; also recorded: less proteins | –
16 | B7 | – | very similar to WT | –
